From patent publication US20220402925A1, “COMPOUNDS AND METHODS FOR THE TREATMENT OF CYSTIC FIBROSIS” (Flatley Discovery Lab, LLC, priority 2019, published 2022)

Target: T1, F508del CFTR (Homo sapiens, UniProt P13569, DEL508-508)
T1 construct: Primary CF airway epithelial cells were obtained from the UNC Cystic Fibrosis Tissue Procurement and Cell Culture Core; host or cells: primary CF airway epithelial cells
Test: Equivalent current assay in primary CF airway epithelial cells (Corrector Activity, NAUC normalized to 3 μM VX809)
Format: cell-based
Details: NAUC as % of positive control (VX-809)
Procedure: Primary CF airway epithelial cells were obtained from the UNC Cystic Fibrosis Tissue Procurement and Cell Culture Core. The cells are grown at 37° C. in a Heracell 150i incubator using growth media (BEGM, Fischer). Cells were then transferred to differentiation media (airway liquid interface media (ALI) media; Lechner J F and LaVeck M A, J. Tissue Culture Methods 1985, 9: 43-48) for a minimum of 4 weeks on coated Costar transwells. Two days before the assay the mucus on the apical surface of the cells was aspirated after incubating with 200 μL of differentiation media for at least thirty (30) minutes. One day before the assay test compounds were added to the basolateral surface of the cells at various test concentrations dissolved in DMSO. Duplicate wells were prepared giving a n=4 or n=6 protocol.
Cells were treated for 24 hours with various combinations and concentrations of the test articles, reference standard (3 μM VX809, positive control). Compounds stock solutions were prepared in DMSO and diluted 1/1000 into ALI media to their final assay concentration. Cells were treated with combination solutions (2 mL of each dilution) and incubated at 37° C. for 24 h.
For the equivalent current assay, cells on six Transwell (24-well) plates were treated. Each Transwell plate was filled with 200 μl of HBS on the apical surface and 2 ml on the basolateral surface. Plates were placed horizontally in a heated mount at 37° C. and equilibrated for 30 minutes. Resting current was measured for 15 min and then blocked by the apical addition of 5 μM benzamil. After 20 min, CFTR activator (10 μM forskolin) and potentiator (either 1 μM VX-770 or 3 μM FDL176) were added to both the apical and basolateral side to stimulate CFTR. An increase in chloride current is seen as an upward deflection of the trace. After another 60 min, CFTR-172 (a CFTR inhibitor, 20 μM) and/or bumetanide (20 uM) was added to block CFTR mediated chloride current.
The raw data, voltage vs. time and resistance vs. time for the equivalent current assay (sampling interval: 6 minutes) were transferred to Excel (Microsoft Office Professional, version 14.0.7106.5003) for analysis. CFTR specific current was computed from I=V/R (Ohms Law), the average amplitude of the increase in current elicited upon addition forskolin and ending upon addition of the CFTR channel specific blocker CFTR-172. This average is equivalent to the sum of the average forskolin activated and the average VX770-potentiated currents. The average current measured in vehicle (0.1% DMSO) treated cells, IV, was subtracted from the current for the test article, ITA, or from the corrector reference standard VX809 (3 uM, ISTD). For replicate measurements, the averaged vehicle subtracted response for the test article, was normalized to the averaged vehicle subtracted response of the reference corrector VX809 (3 μM).
INSC=(ITA−IV)(ave)/(ISTD−IV)(ave) (Equation 1)
A second endpoint, for the equivalent current assay, evaluated was NAUC, the normalized area under the curve (AUC) measuring the response after addition of forskolin and potentiator to the time point right before the addition of the CFTR inhibitor. The AUC is effectively the average response multiplied by the duration of the response. The AUC of the test article, AUCTA was then corrected by subtracting the average vehicle response, AUCV,ave over the same time range, and normalized as for the inhibitor-sensitive current to the difference of the corrector reference standard VX809 (3 μM VX809r,ave and the vehicle response:
NAUCTA=[AUCTA−AUCV,ave]/[AUCVx809r,ave−AUCV,ave] (Equation 2).
The normalized value for DMSO is 0.0 and for VX-809 alone is 1.0 for both of these equations.
Experiments were run with a minimum of n=4 replicates per concentration. Since the distribution for the ratio of two normal distributions is a Cauchy distribution, the median value must be used for the average and the average deviation must be used for the error of all normalized data. […]

T1 sequence (P13569 with tags, fused parts or gaps DEL508-508): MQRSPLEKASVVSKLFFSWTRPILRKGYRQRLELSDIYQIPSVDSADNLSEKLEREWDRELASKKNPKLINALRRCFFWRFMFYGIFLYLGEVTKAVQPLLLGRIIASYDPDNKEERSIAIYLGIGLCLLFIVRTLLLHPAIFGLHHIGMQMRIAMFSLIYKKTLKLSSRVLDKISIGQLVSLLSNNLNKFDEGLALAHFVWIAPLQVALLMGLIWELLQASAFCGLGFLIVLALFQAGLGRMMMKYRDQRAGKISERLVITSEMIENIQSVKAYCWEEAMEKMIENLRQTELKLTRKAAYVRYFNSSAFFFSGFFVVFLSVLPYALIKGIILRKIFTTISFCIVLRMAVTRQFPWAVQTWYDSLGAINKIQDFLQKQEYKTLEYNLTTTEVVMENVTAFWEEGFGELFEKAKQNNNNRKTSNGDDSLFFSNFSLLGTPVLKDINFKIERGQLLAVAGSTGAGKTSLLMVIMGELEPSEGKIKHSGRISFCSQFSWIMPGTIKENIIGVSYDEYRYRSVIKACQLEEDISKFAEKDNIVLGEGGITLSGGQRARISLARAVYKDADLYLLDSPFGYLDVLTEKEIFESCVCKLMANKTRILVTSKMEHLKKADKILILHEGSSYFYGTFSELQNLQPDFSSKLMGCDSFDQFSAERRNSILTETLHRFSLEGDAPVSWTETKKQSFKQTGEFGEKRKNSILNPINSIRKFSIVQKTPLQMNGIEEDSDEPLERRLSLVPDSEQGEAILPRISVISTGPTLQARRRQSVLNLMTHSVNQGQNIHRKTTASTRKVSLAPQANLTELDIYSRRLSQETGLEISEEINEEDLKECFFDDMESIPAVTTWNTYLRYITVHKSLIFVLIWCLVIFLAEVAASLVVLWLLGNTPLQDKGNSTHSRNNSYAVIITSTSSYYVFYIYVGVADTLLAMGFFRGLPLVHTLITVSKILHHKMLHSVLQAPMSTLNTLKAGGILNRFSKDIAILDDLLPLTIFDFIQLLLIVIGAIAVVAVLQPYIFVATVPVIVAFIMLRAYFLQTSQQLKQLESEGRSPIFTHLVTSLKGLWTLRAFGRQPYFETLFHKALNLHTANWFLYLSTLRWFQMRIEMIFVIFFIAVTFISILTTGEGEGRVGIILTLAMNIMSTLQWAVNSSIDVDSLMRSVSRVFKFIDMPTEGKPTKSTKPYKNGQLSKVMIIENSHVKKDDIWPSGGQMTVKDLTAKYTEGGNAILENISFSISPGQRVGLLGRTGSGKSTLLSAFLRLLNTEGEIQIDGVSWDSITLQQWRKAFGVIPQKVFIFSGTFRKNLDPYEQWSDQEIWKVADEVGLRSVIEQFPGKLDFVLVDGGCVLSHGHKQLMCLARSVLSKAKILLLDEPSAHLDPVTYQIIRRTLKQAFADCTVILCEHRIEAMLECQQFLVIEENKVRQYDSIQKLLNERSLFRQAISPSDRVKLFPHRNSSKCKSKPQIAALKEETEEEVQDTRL

Corr Activity (NAUC)	Structure (SMILES)
+++ (NAUC>70% of positive control)	CCN(C(=O)Cn1nc(-c2cc(F)cc(F)c2)c2oc(C)cc2c1=O)c1ccc2c(c1)OC(F)(F)O2 [Example 74]
+++ (NAUC>70% of positive control)	CCN(C(=O)Cn1nc(-c2cc(F)cc(Cl)c2)c2oc(C)cc2c1=O)c1ccc2c(c1)OC(F)(F)O2 [Example 75]
+++ (NAUC>70% of positive control)	CCN(C(=O)Cn1nc(-c2cc(F)cc(C#N)c2)c2oc(C)cc2c1=O)c1ccc2c(c1)OC(F)(F)O2 [Example 76]
+++ (NAUC>70% of positive control)	Cc1cc2c(=O)n(CC(=O)N(c3ccc4c(c3)OC(F)(F)O4)C3CC3)nc(-c3cc(Cl)cc(Cl)c3)c2o1 [Example 77]
+++ (NAUC>70% of positive control)	Cc1cc2c(=O)n(CC(=O)N(c3ccc4c(c3)OC(F)(F)O4)C3CC3)nc(-c3cc(F)cc(F)c3)c2o1 [Example 78]
+++ (NAUC>70% of positive control)	CCN(C(=O)Cn1nc(-c2cc(C)cc(Cl)c2)c2occc2c1=O)c1ccc2c(c1)OC(F)(F)O2 [Example 79]
+++ (NAUC>70% of positive control)	CCN(C(=O)Cn1nc(-c2cc(C)cc(F)c2)c2occc2c1=O)c1ccc2c(c1)OC(F)(F)O2 [Example 83]
+++ (NAUC>70% of positive control)	CCN(C(=O)Cn1nc(-c2cc(C)cc(C#N)c2)c2occc2c1=O)c1ccc2c(c1)OC(F)(F)O2 [Example 84]
+++ (NAUC>70% of positive control)	Cc1cc(Cl)cc(-c2nn(CC(=O)N(C)c3ccc4c(c3)OC(F)(F)O4)c(=O)c3ccoc23)c1 [Example 85]
+++ (NAUC>70% of positive control)	Cc1cc(C#N)cc(-c2nn(CC(=O)N(C)c3ccc4c(c3)OC(F)(F)O4)c(=O)c3ccoc23)c1 [Example 86]
+ (NAUC<40% of positive control)	CN(C(=O)Cn1nc(-c2cccc(C(C)(C)C)c2)c2occc2c1=O)c1ccc2c(c1)OC(F)(F)O2 [Example 87]
++ (NAUC 70-40% of positive control)	CCN(C(=O)Cn1nc(-c2cccc(C(C)(C)C)c2)c2occc2c1=O)c1ccc2c(c1)OC(F)(F)O2 [Example 88]
++ (NAUC 70-40% of positive control)	CCN(C(=O)Cn1nc(-c2cccc(OC(C)(C)C)c2)c2occc2c1=O)c1ccc2c(c1)OC(F)(F)O2 [Example 89]
++ (NAUC 70-40% of positive control)	CN(C(=O)Cn1nc(-c2cccc(OC(F)(F)F)c2)c2occc2c1=O)c1ccc2c(c1)OC(F)(F)O2 [Example 90]
+++ (NAUC>70% of positive control)	CCN(C(=O)Cn1nc(-c2cccc(OC(F)(F)F)c2)c2occc2c1=O)c1ccc2c(c1)OC(F)(F)O2 [Example 91]
+ (NAUC<40% of positive control)	Cc1nc2ccc(N(C)C(=O)Cn3nc(-c4cccc(C(C)(C)C)c4)c4occc4c3=O)cc2o1 [Example 92]
+ (NAUC<40% of positive control)	Cc1nc2ccc(N(C)C(=O)Cn3nc(-c4cccc(OC(F)(F)F)c4)c4occc4c3=O)cc2o1 [Example 93]
++ (NAUC 70-40% of positive control)	CCN(C(=O)Cn1nc(-c2cccc(OC(F)(F)F)c2)c2occc2c1=O)c1ccc2nc(C)oc2c1 [Example 94]
++ (NAUC 70-40% of positive control)	COC(=O)c1ccc(-c2nn(CC(=O)N(C)c3ccc4c(c3)OC(F)(F)O4)c(=O)c3ccoc23)cc1C#N [Example 95]
+++ (NAUC>70% of positive control)	CCOC(=O)c1ccc(-c2nn(CC(=O)N(CC)c3ccc4c(c3)OC(F)(F)O4)c(=O)c3ccoc23)cc1C#N [Example 96]
+ (NAUC<40% of positive control)	CCN(C(=O)Cn1nc(-c2cc(C#N)cc(C(F)(F)F)c2)c2occc2c1=O)c1ccc2c(c1)OC(F)(F)O2 [Example 97]

Corr Activity (NAUC)	Structure (SMILES)
++ (NAUC 70-40% of positive control)	CN(C(=O)Cn1nc(-c2cc(C#N)cc(C(F)(F)F)c2)c2occc2c1=O)c1ccc2c(c1)OC(F)(F)O2 [Example 98]
+++ (NAUC>70% of positive control)	CCN(C(=O)Cn1nc(-c2cc(C#N)cc(C(F)F)c2)c2occc2c1=O)c1ccc2c(c1)OC(F)(F)O2 [Example 99]
+++ (NAUC>70% of positive control)	CN(C(=O)Cn1nc(-c2cc(C#N)cc(C(F)F)c2)c2occc2c1=O)c1ccc2c(c1F)OC(F)(F)O2 [Example 101]
++ (NAUC 70-40% of positive control)	O=C(Cn1nc(-c2cccc(F)c2)c2occc2c1=O)N1CCCc2c1ccc1c2OC(F)(F)O1 [Example 102]
++ (NAUC 70-40% of positive control)	N#Cc1cc(Cl)cc(-c2nn(CC(=O)N3CCCc4c3ccc3c4OC(F)(F)O3)c(=O)c3ccoc23)c1 [Example 103]
+++ (NAUC>70% of positive control)	N#Cc1cc(F)cc(-c2nn(CC(=O)N3CCCc4c3ccc3c4OC(F)(F)O3)c(=O)c3ccoc23)c1 [Example 104]
+++ (NAUC>70% of positive control)	COc1cc(C#N)cc(-c2nn(CC(=O)N3CCCc4c3ccc3c4OC(F)(F)O3)c(=O)c3ccoc23)c1 [Example 105]
+++ (NAUC>70% of positive control)	CN(C(=O)Cn1nc(-c2cccc(F)c2)c2occc2c1=O)c1ccc2c(c1F)OC(F)(F)O2 [Example 108]
+++ (NAUC>70% of positive control)	CCN(C(=O)Cn1nc(-c2cccc(F)c2)c2occc2c1=O)c1ccc2c(c1F)OC(F)(F)O2 [Example 109]
+++ (NAUC>70% of positive control)	CCN(C(=O)Cn1nc(-c2cc(C#N)cc(OC)c2)c2occc2c1=O)c1ccc2c(c1)OC(F)(F)O2 [Example 110]
+++ (NAUC>70% of positive control)	CCN(C(=O)Cn1nc(-c2cc(C#N)cc(C(C)(C)C)c2)c2occc2c1=O)c1ccc2c(c1)OC(F)(F)O2 [Example 111]
+++ (NAUC>70% of positive control)	CCN(C(=O)Cn1nc(-c2cc(Cl)cc(OC)c2)c2occc2c1=O)c1ccc2c(c1)OC(F)(F)O2 [Example 112]
+++ (NAUC>70% of positive control)	CCN(C(=O)Cn1nc(-c2cccc(F)c2)c2oc(C(=O)NC(C)(C)C)cc2c1=O)c1ccc2c(c1)OC(F)(F)O2 [Example 119]
+++ (NAUC>70% of positive control)	CCN(C(=O)Cn1nc(-c2cccc(Cl)c2)c2oc(C(=O)NC(C)(C)C)cc2c1=O)c1ccc2c(c1)OC(F)(F)O2 [Example 120]
+++ (NAUC>70% of positive control)	CCN(C(=O)Cn1nc(-c2cccc(C#N)c2)c2oc(C(=O)NC(C)(C)C)cc2c1=O)c1ccc2c(c1)OC(F)(F)O2 [Example 121]
++ (NAUC 70-40% of positive control)	CCN(C(=O)Cn1nc(-c2cccc(OC(C)(C)C)c2)c2oc(C(=O)NC(C)(C)C)cc2c1=O)c1ccc2c(c1)OC(F)(F)O2 [Example 122]
+ (NAUC<40% of positive control)	CN(C(=O)Cn1nc(-c2cccc(OC(C)(C)C)c2)c2oc(C(=O)NC(C)(C)C)cc2c1=O)c1ccc2c(c1)OC(F)(F)O2 [Example 123]
++ (NAUC 70-40% of positive control)	CCN(C(=O)Cn1nc(-c2cccc(OC(F)(F)F)c2)c2oc(C(=O)NC(C)(C)C)cc2c1=O)c1ccc2c(c1)OC(F)(F)O2 [Example 124]
++ (NAUC 70-40% of positive control)	CN(C(=O)Cn1nc(-c2cccc(OC(F)(F)F)c2)c2oc(C(=O)NC(C)(C)C)cc2c1=O)c1ccc2c(c1)OC(F)(F)O2 [Example 125]
+++ (NAUC>70% of positive control)	CN(C(=O)Cn1nc(-c2cccc(C(C)(C)C)c2)c2oc(C(=O)NC(C)(C)C)cc2c1=O)c1ccc2c(c1)OC(F)(F)O2 [Example 126]
